Data taken from patent US7348427B2, “Antipathogenic benzamide compounds” (Genesoft Pharmaceuticals, Inc., priority 2001, dated 2008).

How the values were obtained:
[1] = system: Staphylococcus aureus (ATCC 13709, a methicillin sensitive strain (MSSA)); assay: MIC, NCCLS broth microdilution assay; assay type: cell-based; settings: E = S. aureus ATCC 13709
Summary of the method: (§1)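 Activity is measured as MIC in microtiter broth microdilution under NCCLS M7-A4, M11-A4 and M27-T guidance, with the yeast tested by the method in Murray's Manual of Clinical Microbiology.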

[2] = system: Bacillus cereus (ATCC 11778); assay: MIC, NCCLS broth microdilution assay; assay type: cell-based; settings: A = B. cereus ATCC 11778
Summary of the method: as §1

[3] = system: Staphylococcus aureus (ATCC 27660, a methicillin resistant strain (MRSA)); assay: MIC, NCCLS broth microdilution assay; assay type: cell-based; settings: F = S. aureus ATCC 27660
Summary of the method: as §1

[4] = system: methicillin resistant Staphylococcus aureus ATCC 33591; assay: Murine neutropenic thigh model; assay type: in vivo; settings: neutropenic female CF1 mice, 6 hr after treatment
Experimental: A S. aureus ATCC 33591 culture was grown to log phase overnight and diluted in phosphate buffered saline (pH 7.2) to an optical density of about 0.1 at 600 nm, giving an approximate concentration of 10^8 cfu/mL. The suspension was diluted 1:100 in phosphate buffered saline (pH 7.2) for a final concentration of 10^6 cfu/mL.
Outbred female CF1 mice (approx. 20 gram body weight) were rendered neutropenic by treatment with cyclophosphamide (200 mg/kg body weight, intraperitoneal injection) at 2 and 4 days prior to inoculation. Groups of 5 mice were inoculated with 0.05 mL of the bacteria (approx. 10^6 cfu/mL) into the anterior thigh. Each group was treated intravenously two hours post infection with vehicle (phosphate buffered saline) or test compound. The mice were sacrificed at either 6 or 24 hrs after treatment and thighs were collected aseptically. Each thigh was weighed, placed into sterile saline, and homogenized. The tissue homogenates were diluted appropriately for plating on agar plates. Colony counts were recorded (cfu/gram) and compared to control groups.
In vivo efficacy was shown by a decrease in colony count (log cfu/gram of tissue) in the compound-treated animals when compared against the colony count in animals given only the vehicle.

[5] = system: Candida albicans (ATCC 38247); assay: Antifungal MIC assay; assay type: cell-based; settings: B = C. albicans ATCC 38247
Summary of the method: as §1

E. faecalis ATCC 29212 = assay: MIC, NCCLS broth microdilution assay; assay type: cell-based, Enterococcus faecalis; settings: C = E. faecalis ATCC 29212
Summary of the method: (§2)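 MICs were determined by NCCLS broth microdilution following documents M7-A4 and M11-A4 (1997).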

S. pneumoniae ATCC 49619 = assay: MIC, NCCLS broth microdilution assay; assay type: cell-based, Streptococcus pneumoniae; settings: H = S. pneumoniae ATCC 49619
Summary of the method: as §2

[6] = system: Staphylococcus epidermidis (ATCC 12228); assay: MIC, NCCLS broth microdilution assay; assay type: cell-based; settings: G = S. epidermidis ATCC 12228
Summary of the method: as §1

[7] = system: Enterococcus faecium (ATCC 51559, a vancomycin resistant strain (VRE)); assay: MIC, NCCLS broth microdilution assay; assay type: cell-based; settings: D = E. faecium ATCC 51559
Summary of the method: as §1

[8] = system: Streptococcus pneumoniae (ATCC 51422, a penicillin resistant strain (PRSP)); assay: MIC, NCCLS broth microdilution assay; assay type: cell-based; settings: I = S. pneumoniae ATCC 51422
Summary of the method: as §1

[9] = 50 mg/kg intravenously two hours post infection
[10] = Staphylococcus aureus, read-out: Minimum Inhibitory Concentration (MIC)

Row | Compound | Minimum Inhibitory Concentration (MIC) [1] | Minimum Inhibitory Concentration (MIC) [2] | Minimum Inhibitory Concentration (MIC) [3] | Colony Count (log cfu/gram) Compound [4, 9] | Minimum Inhibitory Concentration (MIC) [5] | Minimum Inhibitory Concentration (MIC) (E. faecalis ATCC 29212) | Minimum Inhibitory Concentration (MIC) (S. pneumoniae ATCC 49619) | Minimum Inhibitory Concentration (MIC) [6] | Minimum Inhibitory Concentration (MIC) [7] | Minimum Inhibitory Concentration (MIC) [8] | Colony Count (log cfu/gram) Compound ([4]; 25 mg/kg intravenously two hours post infection) | MIC [1, 10] | MIC ([2]; Bacillus cereus, ATCC11778, read-out: Minimum Inhibitory Concentration (MIC)) | MIC [3, 10] | MIC ([6]; Staphylococcus epidermidis, ATCC12228, read-out: Minimum Inhibitory Concentration (MIC)) | MIC ([7]; Enterococcus faecium, read-out: Minimum Inhibitory Concentration (MIC)) | MIC ([8]; Streptococcus pneumoniae, read-out: Minimum Inhibitory Concentration (MIC)) | MIC ([5]; Candida albicans, ATCC38247, read-out: Minimum Inhibitory Concentration (MIC)) | MIC (E. faecalis ATCC 29212; Enterococcus faecalis, ATCC29212, read-out: Minimum Inhibitory Concentration (MIC)) | MIC (S. pneumoniae ATCC 49619; Streptococcus pneumoniae, ATCC49619, read-out: Minimum Inhibitory Concentration (MIC))
1 | Cn1cc(NC(=O)c2cc(NC(=O)c3cc(NC(=O)c4ccc(Cl)cc4)cn3C)cn2C)cc1C(=O)NCCN1CCOCC1 [Compound B-56] | +++ (+++ = MIC ≦ 4) | +++ (+++ = MIC ≦ 4) | +++ (+++ = MIC ≦ 4) | 6.38 log cfu/gram | >32 µg/mL | +++ (+++ = MIC ≦ 4) | +++ (+++ = MIC ≦ 4) | – | – | – | – | – | – | – | – | – | – | – | – | –
2 | Cn1cc(NC(=O)c2cc(NC(=O)c3cc(NC(=O)c4ccc(F)cc4F)c[nH]3)cn2C)cc1C(=O)NCCc1ccncc1 [Compound A-7] | +++ (+++ = MIC ≦ 4) | +++ (+++ = MIC ≦ 4) | +++ (+++ = MIC ≦ 4) | – | >32 µg/mL | +++ (+++ = MIC ≦ 4) | +++ (+++ = MIC ≦ 4) | +++ (+++ = MIC ≦ 4) | +++ (+++ = MIC ≦ 4) | +++ (+++ = MIC ≦ 4) | – | – | – | – | – | – | – | – | – | –
3 | CN(C)CCCNC(=O)c1cc(NC(=O)c2cc(NC(=O)c3cc(NC(=O)c4ccc(Cl)cc4F)cn3C)cn2C)cn1C [Compound B-50] | +++ (+++ = MIC ≦ 4) | +++ (+++ = MIC ≦ 4) | +++ (+++ = MIC ≦ 4) | 6.58 log cfu/gram | +++ (+++ = MIC ≦ 4) | +++ (+++ = MIC ≦ 4) | +++ (+++ = MIC ≦ 4) | – | – | – | – | – | – | – | – | – | – | – | – | –
4 | Cn1cc(NC(=O)c2cc(NC(=O)c3cc(NC(=O)c4ccc(Cl)cc4NCCN4CCCCC4)cn3C)cn2C)cc1C(=O)NCCN1CCCCC1 [Compound B-64] | +++ (+++ = MIC ≦ 4) | +++ (+++ = MIC ≦ 4) | +++ (+++ = MIC ≦ 4) | – | +++ (+++ = MIC ≦ 4) | +++ (+++ = MIC ≦ 4) | +++ (+++ = MIC ≦ 4) | +++ (+++ = MIC ≦ 4) | +++ (+++ = MIC ≦ 4) | +++ (+++ = MIC ≦ 4) | – | – | – | – | – | – | – | – | – | –
5 | Cn1cc(NC(=O)c2cc(NC(=O)c3cc(NC(=O)c4ccc(Cl)cc4F)c[nH]3)cn2C)cc1C(=O)NCCN1CCC(F)CC1 [Compound A-26] | +++ (+++ = MIC ≦ 4) | +++ (+++ = MIC ≦ 4) | +++ (+++ = MIC ≦ 4) | 5.34 log cfu/gram | ++ (++ = 4 < MIC < 12) | +++ (+++ = MIC ≦ 4) | +++ (+++ = MIC ≦ 4) | – | – | – | 6.37 log cfu/gram | – | – | – | – | – | – | – | – | –
6 | Cc1cc(NC(=O)c2cc(NC(=O)c3cc(NC(=O)c4ccc(Cl)cc4F)c[nH]3)cn2CCN2CCCC2)sn1 [Compound D-10] | +++ (+++ = MIC ≦ 4) | +++ (+++ = MIC ≦ 4) | + (+ = 12 ≦ MIC ≦ 32) | – | ++ (++ = 4 < MIC < 12) | +++ (+++ = MIC ≦ 4) | +++ (+++ = MIC ≦ 4) | +++ (+++ = MIC ≦ 4) | +++ (+++ = MIC ≦ 4) | +++ (+++ = MIC ≦ 4) | – | – | – | – | – | – | – | – | – | –
7 | Cn1cc(NC(=O)c2cc(NC(=O)c3cc(NC(=O)c4ccc(Cl)cc4F)c[nH]3)cn2C)cc1C(=O)NCC[N+]1(C)CCOCC1 [Compound A-28] | – | – | – | – | – | – | – | – | – | – | – | ≤ 4 µg/mL | ≤ 4 µg/mL | ≤ 4 µg/mL | ≤ 4 µg/mL | 12 to 32 µg/mL | ≤ 4 µg/mL | ≤ 4 µg/mL | 4 to 12 µg/mL | ≤ 4 µg/mL
8 | Cn1cc(NC(=O)c2cc(NC(=O)c3cc(NC(=O)c4ccc(F)cc4F)cn3C)cn2C)cc1C(=O)NCCN1CCSCC1 [Compound B-3] | +++ (+++ = MIC ≦ 4) | +++ (+++ = MIC ≦ 4) | +++ (+++ = MIC ≦ 4) | – | >32 µg/mL | +++ (+++ = MIC ≦ 4) | +++ (+++ = MIC ≦ 4) | +++ (+++ = MIC ≦ 4) | + (+ = 12 ≦ MIC ≦ 32) | +++ (+++ = MIC ≦ 4) | – | – | – | – | – | – | – | – | – | –
9 | Cn1cc(NC(=O)c2ccc(F)cc2F)cc1C(=O)Nc1cc(C(=O)Nc2cc(C(=O)N3CCC(O)CC3)n(C)c2)n(C)c1 [Compound B-26] | >32 µg/mL | >32 µg/mL | >32 µg/mL | – | >32 µg/mL | >32 µg/mL | >32 µg/mL | >32 µg/mL | >32 µg/mL | >32 µg/mL | – | – | – | – | – | – | – | – | – | –
10 | Cn1cc(NC(=O)c2cc(NC(=O)c3cc(NC(=O)c4ccc(F)cc4F)cn3C)cn2C)cc1C(=O)NCCc1cccnc1 [Compound B-24] | +++ (+++ = MIC ≦ 4) | +++ (+++ = MIC ≦ 4) | +++ (+++ = MIC ≦ 4) | – | >32 µg/mL | +++ (+++ = MIC ≦ 4) | +++ (+++ = MIC ≦ 4) | +++ (+++ = MIC ≦ 4) | +++ (+++ = MIC ≦ 4) | +++ (+++ = MIC ≦ 4) | – | – | – | – | – | – | – | – | – | –
11 | Cn1cc(NC(=O)c2cc(NC(=O)c3ccc(Cl)cc3F)cn2C)cc1C(=O)NCCN1CCOCC1 [Compound B-48] | +++ (+++ = MIC ≦ 4) | +++ (+++ = MIC ≦ 4) | ++ (++ = 4 < MIC < 12) | – | >32 µg/mL | +++ (+++ = MIC ≦ 4) | +++ (+++ = MIC ≦ 4) | +++ (+++ = MIC ≦ 4) | +++ (+++ = MIC ≦ 4) | +++ (+++ = MIC ≦ 4) | – | – | – | – | – | – | – | – | – | –
12 | Cn1cc(NC(=O)c2cc(NC(=O)c3cc(NC(=O)c4ccc(C#N)cc4)cn3C)cn2C)cc1C(=O)NCCN1CCOCC1 [Compound B-67] | – | +++ (+++ = MIC ≦ 4) | – | 7.73 log cfu/gram | >32 µg/mL | +++ (+++ = MIC ≦ 4) | +++ (+++ = MIC ≦ 4) | – | – | – | – | – | – | – | – | – | – | – | – | –
13 | Cn1cc(NC(=O)c2cc(NC(=O)c3cc(NC(=O)c4ccc(Cl)cc4F)cn3C)cn2C)cc1C(=O)NCCN1CCSCC1 [Compound B-49] | +++ (+++ = MIC ≦ 4) | +++ (+++ = MIC ≦ 4) | +++ (+++ = MIC ≦ 4) | – | >32 µg/mL | +++ (+++ = MIC ≦ 4) | +++ (+++ = MIC ≦ 4) | +++ (+++ = MIC ≦ 4) | +++ (+++ = MIC ≦ 4) | +++ (+++ = MIC ≦ 4) | – | – | – | – | – | – | – | – | – | –
